Measurements from patent publication US5393883A, “Antiviral combinations and compounds therefor” (Burroughs Wellcome Co., priority 1988, dated 1995).
Like-named read-outs stand apart in the source and are kept apart here.

Tested on: HSV-2
Experiment: dye uptake method: prevention of HSV-2 cytopathic effect in Vero cells, acyclovir with ribonucleotide reductase inhibitor (Compound A)
Assay type: cell-based
Description: The ribonucleotide reductase inhibitors of the present invention were shown by use of the dye uptake method described by McLaren, Ellis and Hunter in Antivir. Res. 3, 223-234 (1983) to potentiate the in vitro antiviral effects of acyclovir. Vero cells (20,000 cells/well) were incubated in microtiter wells for 24 hours. Various concentrations of acyclovir and the ribonucleotide reductase inhibitors were added and the cells were infected with 30 infectious particles/well of HSV-1 or HSV-2. After 3 days incubation, the antiviral effects were assessed by determining the prevention of the cytopathic effects of the viruses. Examples of the synergistic antiherpes activity of 2-acetylpyridine (4,5-dihydro-5-thioxo-1,3,4-thiadiazol-2-yl)-hydrazone (Compound A) and acyclovir (ACV) are given below.

IC50 Calculated (theoretical value for the additive combined effects of ACV and Compound A) (ACV alone) [µM] | IC50 (Human alphaherpesvirus 2, Vero, 72 h, read-out: IC50 Observed (concentration of ACV required to inhibit HSC2 replication by 50%)) [µM] | IC50 (Human alphaherpesvirus 2, Vero, read-out: IC50 of Compound A alone (inhibition of virus replication)) [µM] | SMILES | inhibition at 0.4 µM (Human alphaherpesvirus 2, Vero, 0.4 μM Compound A alone, read-out: % inhibition of virus replication by Compound A alone) [%] | inhibition at 0.9 µM (Human alphaherpesvirus 2, Vero, 0.9 μM Compound A alone, read-out: % inhibition of virus replication by Compound A alone) [%] | inhibition at 1.3 µM (Human alphaherpesvirus 2, Vero, 1.3 μM Compound A alone, read-out: % inhibition of virus replication by Compound A alone) [%]
5.7 | 5.77 |  | Nc1nc2c(ncn2COCCO)c(=O)[nH]1 [ACV, 9-(2-hydroxyethoxymethyl)guanine, reference compound] |  |  | 
 |  | 1.6 | CC(=NNc1n[nH]c(=S)s1)c1ccccn1 [Compound A, 2-acetylpyridine (4,5-dihydro-5-thioxo-1,3,4-thiadiazol-2-yl)-hydrazone] | 0 | 0 | 21
